Results from ChEMBL document CHEMBL1148569, “Aza-analogues of the marine pyrroloquinoline alkaloids wakayin and tsitsikammamines: synthesis and topoisomerase inhibition” (Bioorg Med Chem Lett, 2006).
Active and inactive are the calls of the source. The calls are words filed in the database; no cut-off is given here.

Columns and labels:
[1] = target: T1, DNA topoisomerase 1 (Homo sapiens) (UniProt P11387); assay: Inhibition of Topoisomerase 1 mediated DNA cleavage activity in a cell free assay at 100 uM
T1 sequence (whole entry): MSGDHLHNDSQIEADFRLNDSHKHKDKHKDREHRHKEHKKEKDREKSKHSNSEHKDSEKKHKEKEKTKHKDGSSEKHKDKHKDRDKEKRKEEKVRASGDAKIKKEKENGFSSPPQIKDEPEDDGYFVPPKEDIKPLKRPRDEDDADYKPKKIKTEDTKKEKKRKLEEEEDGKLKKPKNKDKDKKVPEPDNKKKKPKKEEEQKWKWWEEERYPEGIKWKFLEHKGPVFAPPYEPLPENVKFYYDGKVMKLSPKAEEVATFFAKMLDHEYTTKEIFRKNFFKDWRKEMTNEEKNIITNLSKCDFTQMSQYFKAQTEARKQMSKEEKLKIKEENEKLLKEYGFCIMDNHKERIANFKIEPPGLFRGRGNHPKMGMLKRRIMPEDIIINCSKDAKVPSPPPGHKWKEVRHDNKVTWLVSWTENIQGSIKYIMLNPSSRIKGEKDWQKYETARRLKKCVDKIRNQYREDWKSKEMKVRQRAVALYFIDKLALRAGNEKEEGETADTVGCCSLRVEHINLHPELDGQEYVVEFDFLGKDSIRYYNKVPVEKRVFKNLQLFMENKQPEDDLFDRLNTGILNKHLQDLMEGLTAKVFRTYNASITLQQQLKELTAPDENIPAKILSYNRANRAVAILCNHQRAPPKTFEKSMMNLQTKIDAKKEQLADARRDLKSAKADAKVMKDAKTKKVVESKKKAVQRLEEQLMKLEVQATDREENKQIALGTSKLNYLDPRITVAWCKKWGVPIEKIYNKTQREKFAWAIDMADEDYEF

[2] = target: DNA topoisomerase II (Homo sapiens) (UniProt P11388+Q02880); assay: Inhibition of Topoisomerase 2 mediated DNA cleavage activity in a cell free assay at 100 uM; assay type: protein assay

Activity [1]	Activity [2]	Structure (SMILES)
inactive	inactive	O=C1c2cc[nH]c2C2=NCCc3n[nH]c1c32
Active	inactive	O=C1c2[nH]ccc2C2=NCCc3n[nH]c1c32
